The test system of one series is HBV-DNA. The series can be described thus: Inhibition of supernatant HBV-DNA in 2.2.15 cells (fluorescent quantitative PCR). As to conditions: for IC50 (HBV-DNA): 2.2.15 cell supernatant; for IC50 (HBV-DNA) / inhibitory percentage for supernatant HBV-DNA: day 8; for inhibitory percentage for supernatant HBV-DNA: at the concentration of 160 μg/ml. The protocol: (§1) Cell suspensions were prepared and incubated as described in Method 1 above. […] The culture media, with added test substance, were exchanged on days 3 and 6. On the 8th day, the supernatants of the cell cultures were harvested for the determination of HBV-DNA concentrations by fluorescent quantitative PCR^[3,4], using the method described by the kit supplier. The cultured cells were taken for analysis of the cytotoxicity of each test substance. The inhibitory percentage of the drug was calculated in the following manner: Inhibitory percentage (%)=(blank control−sample)/blank control×100 Cell survival percentage (%)=sample (A595−A650)/blank control (A595−A650)×100
(§2) TC50 was defined as the test substance concentration at which the percentage of surviving cells in the test group is 50% of that of the control group. IC50 was the test substance concentration at which the percentage of reduction of HBV-DNA concentration is 50% compared to control. These were determined by plotting the corresponding percentage against the test substance concentrations. The selection index (SI) was calculated as TC50/IC50. The bigger the value of SI, the higher the inhibition activity of test substance is and the less cytotoxic it is.

The next series deals with HBeAg. As to conditions: at 400 μg/ml, day 8, 2.2.15 cell supernatant. The protocol: (§3) a. Inhibitory effect of CMS017 on HBsAg and HBeAg at maximum non-toxic concentration in vitro 2.2.15 cells, growing at logarithmic phase, were harvested and re-suspended in MEM culture medium (containing 10% calf serum, […], and 100 U/ml streptomycin) as a 2×10^6/ml cell suspension. The suspension was inoculated into a 24-well cell culture plate with 1.5 ml per well, and incubated at 37° C., 5% CO2 for 48 hours. The test substance CMS017 was diluted and added to the 2.2.15 cultures to final concentrations of 0, 50, 100, 200, 400, 800 μg/ml, with 3 parallel samples per concentration. The cells were then incubated at 37° C., 5% CO2. The supernatant was refreshed on days 3 and 6. The cytotoxicity of CMS017 on 2.2.15 cell cultures was then observed with MTT staining on day 8, and the maximum non-toxic concentration of CMS017 was determined.
(§4) The preparation and incubation of cell suspensions were repeated as above with the determined maximum non-toxic concentration of CMS017, and with parallel negative and positive controls (lamivudine with the same concentration as CMS017 was used as the positive control). On the 8th day, the titers of HBsAg and HBeAg in the cell culture supernatants were determined by ELISA^[1,2], using conditions described by the kit supplier. The inhibition percentage of each test substance was calculated as shown below. Inhibitory percentage (%)=(blank control−sample)/blank control×100 Cell survival percentage (%)=sample (A595−A650)/blank control (A595−A650)×100

For a further series, the system named is HBsAg. The conditions noted are these: at 400 μg/ml, day 8, 2.2.15 cell supernatant. The protocol:
as §3, §4

For a further series, the system named is hepG 2 2.2.15 cell line. Nature of the series: Cytotoxicity of CMS017 on 2.2.15 cell cultures, MTT staining (maximum non-toxic concentration). It counts as cell-based. As to conditions: 2.2.15 cells, MTT staining on day 8. The protocol: as §3
The nature of series [1]: Cytotoxicity (cell survival, TC50) in the HBV-DNA experiment. The class given is cell-based. The conditions noted are these: human, HepG2 2.2.15 cells, day 8, concentration at which cell survival is 50% of control. The protocol: as §1, §2
Series [2] concerns T lymphocyte transformation. Nature of the series: ConA-induced T lymphocyte transformation of spleen cells from treated mice (MTT). It counts as in vivo, BALB/c mice. As to conditions: for stimulation index (X ± SD): BALB/c mice, spleen cells + ConA. As for the experimental part:
The day after the last test substance administration, the mice were sacrificed by cervical dislocation. The spleen was isolated aseptically and manually dispersed in cold D-Hank's solution using an injection needle. The dispersed cell suspension was further sieved through a 100 gauge 150 μm diameter stainless steel sieve. After centrifugation at 200 g for 10 minutes, the supernatant was discarded. […] The suspended cells were collected by centrifugation at 150 g for 10 minutes. […] The cells were then pelleted by centrifugation at 150 g for 10 minutes. […] The incubation was continued for 4 hours.

Marks after values point to notes of the source that are not given here. No end group written: not given here.

With “vidarabine monophosphate [Ara-AMP, reference compound]”, in the series with HBV-DNA, the “IC50 (HBV-DNA)” value was found to be 11.4 mg/L; the “SI (selection index, TC50/IC50)” value turned out to be 5.6; the “inhibitory percentage for supernatant HBV-DNA” value is on record as 89.1%*.

For the compound `Nc1ccn([C@@H]2CS[C@H](CO)O2)c(=O)n1` [Lamivudine, lamivudine, reference compound], in the series with HBeAg, the “Inhibition ratio of HBeAg” value is recorded as 35.4%*. Moreover, the “Inhibition ratio of HBsAg” value in the series on HBsAg is on record as 29.6%*.

Broadly, the CC50 is the concentration that lowers cell viability or growth by half. A low value points to harm at low concentration. Take “IVTNTT [CMS017, L-Isoleucyl-L-valyl-L-threonyl-L-asparaginyl-L-threonyl-L-threonine]”: in the series with hepG 2 2.2.15 cell line, the maximum non-toxic concentration came out at 400 µg/mL. In addition, the “Inhibition ratio of HBeAg” value in the series on HBeAg is reported as 62.2%*. In addition, in the series on HBsAg, the “Inhibition ratio of HBsAg” value came out at 68.6%*. Also, in the series on HBV-DNA, the “IC50 (HBV-DNA)” value came out at 2.3 mg/L; the “SI (selection index, TC50/IC50)” value worked out at 577.7; the “inhibitory percentage for supernatant HBV-DNA” value amounted to 90.8%. For the same compound, the CC50 at 192 h in series [1] was found to be 1330 mg/L. The “stimulation index (X ± SD)” value in series [2] (50 μg/kg/day i.p. for 28 days) is 2.82 ± 0.41. Besides, in series [2] (50 μg/kg/day, compared with the saline control group (P<0.05)), the “effect on T lymphocyte transformation (in words)” value is on record as “enhance T lymphocyte transformation”. Further, the “stimulation index (X ± SD)” value in series [2] (200 μg/kg/day i.p. for 28 days) amounted to 2.65 ± 0.51.

(Values after patent US7396817B2, “Biologically active peptides comprising Isoleucyl-valyl-threonyl-asparaginyl-threonyl-threonine (IVTNTT)” (CMS Peptides Patent Holding Company Limited, priority 2003, dated 2008).)
